# Data as given in ChEMBL document CHEMBL1125386, “Small atrial natriuretic peptide analogues: design, synthesis, and structural requirements for guanylate cyclase activation” (J Med Chem, 1992).
# Test system: not listed separately
# Assay: Binding affinity towards low-affinity site of Atrial natriuretic peptide receptor 1 of rabbit adrenal membrane
# Type: tissue-based
# Settings: not given
row,KL,SMILES
1,510 nM,CC[C@H](C)[C@@H]1NC(=O)[C@@H](CCCN=C(N)N)NC(=O)CNC(=O)CNC(=O)[C@@H](Cc2ccccc2)NC(=O)[C@@H](C)NC(=O)[C@H](NC(=O)[C@H](CO)NC(=O)[C@@H](N)CO)CSSC[C@H](C(=O)N[C@H](Cc2ccccc2)C(=O)N[C@H](CCCN=C(N)N)C(=O)O)NC(=O)[C@@H]([C@@H](C)CC)NC(=O)[C@H](CCCN=C(N)N)NC(=O)[C@@H](CO)NC1=O
2,7800 nM,CC[C@H](C)[C@@H]1NC(=O)[C@@H](CCCN=C(N)N)NC(=O)CNC(=O)CNC(=O)[C@@H](Cc2ccccc2)NC(=O)[C@@H](C)NC(=O)[C@H](NC(=O)[C@H](CO)NC(=O)[C@@H](N)CO)CSSC[C@H](C(=O)N[C@H](Cc2ccccc2)C(=O)N[C@H](CCCN=C(N)N)C(=O)O)NC(=O)[C@@H]([C@@H](C)CC)NC(=O)[C@H](CC(=O)O)NC(=O)[C@@H](CCCN=C(N)N)NC1=O
3,540 nM,CC[C@H](C)[C@@H]1NC(=O)[C@@H](CCCN=C(N)N)NC(=O)CNC(=O)CNC(=O)[C@@H](Cc2ccccc2)NC(=O)[C@@H](C)NC(=O)[C@H](NC(=O)[C@H](CO)NC(=O)[C@@H](N)CO)CSSC[C@H](C(=O)N[C@H](Cc2ccccc2)C(=O)N[C@H](CCCN=C(N)N)C(=O)O)NC(=O)[C@@H]([C@@H](C)CC)NC(=O)[C@H](CCCN=C(N)N)NC(=O)[C@@H](CC(N)=O)NC1=O
4,13000 nM,CC[C@H](C)[C@@H]1NC(=O)[C@@H](CCCN=C(N)N)NC(=O)CNC(=O)CNC(=O)[C@@H](Cc2ccc(OC)c(OC)c2)NC(=O)C(C)NC(=O)[C@H](NC(=O)[C@H](CO)NC(=O)[C@@H](N)CO)CSSC[C@H](C(=O)N[C@H](Cc2ccccc2)C(=O)N[C@H](CCCN=C(N)N)C(=O)O)NC(=O)[C@@H]([C@@H](C)CC)NC(=O)[C@H](CCCN=C(N)N)NC(=O)[C@@H](CC(=O)O)NC1=O (stereo in doubt)
5,190 nM,CC[C@H](C)[C@@H]1NC(=O)[C@@H](CCCN=C(N)N)NC(=O)CNC(=O)CNC(=O)[C@@H](C2CCCCC2)NC(=O)[C@H](NC(=O)[C@H](N)Cc2c[nH]cn2)CSSC[C@H](C(N)=O)NC(=O)[C@@H](CCCN=C(N)N)NC(=O)[C@H](Cc2ccccc2)NC(=O)[C@@H]([C@@H](C)CC)NC(=O)[C@H](CCCN=C(N)N)NC(=O)[C@@H](CC(=O)O)NC1=O
6,10000 nM,CC[C@H](C)[C@@H]1NC(=O)[C@@H](CCCN=C(N)N)NC(=O)CNC(=O)CNC(=O)[C@@H](Cc2ccc(O)cc2)NC(=O)C(C)NC(=O)[C@H](NC(=O)[C@H](CO)NC(=O)[C@@H](N)CO)CSSC[C@H](C(=O)N[C@H](Cc2ccccc2)C(=O)N[C@H](CCCN=C(N)N)C(=O)O)NC(=O)[C@@H]([C@@H](C)CC)NC(=O)[C@H](CCCN=C(N)N)NC(=O)[C@@H](CC(=O)O)NC1=O (stereo in doubt)

row,SMILES,KL
1,CC[C@H](C)[C@@H]1NC(=O)[C@@H](CCCN=C(N)N)NC(=O)CNC(=O)CNC(=O)[C@@H](Cc2ccccc2)NC(=O)CNC(=O)[C@H](NC(=O)[C@H](CO)NC(=O)[C@@H](N)CO)CSSC[C@H](C(=O)N[C@H](Cc2ccccc2)C(=O)NCC(=O)O)NC(=O)[C@@H]([C@@H](C)CC)NC(=O)[C@H](CCCN=C(N)N)NC(=O)[C@@H](CC(=O)O)NC1=O,3100 nM
2,CC[C@H](C)[C@@H]1NC(=O)[C@H](CCCN=C(N)N)NC(=O)[C@@H](CC(=O)O)NC(=O)[C@H]([C@@H](C)CC)NC(=O)[C@@H](CCCN=C(N)N)NC(=O)CNC(=O)CNC(=O)[C@@H](Cc2ccccc2)NC(=O)CNC(=O)[C@@H](NC(=O)[C@H](CO)NC(=O)[C@@H](N)CO)CSSC[C@@H](C(=O)N[C@H](Cc2ccccc2)C(=O)N[C@@H](CCCCN=C(N)N)C(=O)O)NC1=O,320 nM
3,CC[C@H](C)[C@@H]1NC(=O)[C@H](CCCN=C(N)N)NC(=O)[C@@H](CC(=O)O)NC(=O)[C@H]([C@@H](C)CC)NC(=O)[C@@H](CCCN=C(N)N)NC(=O)CNC(=O)CNC(=O)[C@@H](Cc2ccccc2)NC(=O)CNC(=O)[C@@H](NC(=O)[C@H](CO)NC(=O)[C@@H](N)CO)CSSC[C@@H](C(=O)N[C@H](Cc2ccccc2)C(=O)N[C@@H](CCCCN)C(=O)O)NC1=O,5900 nM
4,CC[C@H](C)[C@@H]1NC(=O)[C@@H](CCCN=C(N)N)NC(=O)CNC(=O)CNC(=O)[C@@H](Cc2ccccc2)NC(=O)CNC(=O)[C@H](NC(=O)[C@H](CO)NC(=O)[C@@H](N)CO)CSSC[C@H](C(=O)N[C@H](Cc2ccccc2)C(=O)N[C@@H](CCCN=C(N)N)C(=O)O)NC(=O)[C@@H]([C@@H](C)CC)NC(=O)[C@H](CCCN=C(N)N)NC(=O)[C@@H](CC(=O)O)NC1=O,620 nM
5,CC[C@H](C)[C@@H]1NC(=O)[C@@H](CCCN=C(N)N)NC(=O)CNC(=O)CNC(=O)[C@@H](Cc2ccccc2)NC(=O)[C@H](NC(=O)[C@H](N)CCCN=C(N)N)CSSC[C@H](C(=O)O)NC(=O)[C@@H](CCCN=C(N)N)NC(=O)[C@H](Cc2ccccc2)NC(=O)[C@@H]([C@@H](C)CC)NC(=O)[C@H](CCCN=C(N)N)NC(=O)[C@@H](CC(=O)O)NC1=O,660 nM

# Test system: Atrial natriuretic peptide receptor 1 (Oryctolagus cuniculus)
# Assay: Binding affinity for low-affinity site Atrial natriuretic peptide receptor 1 of rabbit adrenal membrane
# Settings: Adrenal gland
row,KL,SMILES
1,380 nM,CC[C@H](C)[C@@H]1NC(=O)[C@@H](CCCN=C(N)N)NC(=O)CNC(=O)CNC(=O)[C@@H](C2CCCCC2)NC(=O)CCSSC[C@H](C(N)=O)NC(=O)[C@H](CCCN=C(N)N)NC(=O)[C@H](Cc2ccccc2)NC(=O)[C@@H]([C@@H](C)CC)NC(=O)[C@H](CCCN=C(N)N)NC(=O)[C@@H](CC(=O)O)NC1=O
2,160 nM,CC[C@H](C)[C@@H]1NC(=O)[C@@H](CCCN=C(N)N)NC(=O)CNC(=O)CNC(=O)[C@@H](C2CCCCC2)NC(=O)[C@H](NC(=O)[C@@H](CO)NC(=O)[C@H](N)CO)CSSC[C@H](C(=O)O)NC(=O)[C@@H](CCCN=C(N)N)NC(=O)[C@H](Cc2ccccc2)NC(=O)[C@@H]([C@@H](C)CC)NC(=O)[C@H](CCCN=C(N)N)NC(=O)[C@@H](CC(=O)O)NC1=O
3,1900 nM,CC[C@H](C)[C@@H]1NC(=O)[C@@H](CCCN=C(N)N)NC(=O)CNC(=O)CNC(=O)[C@@H](C2CCCCC2)NC(=O)CCSSC[C@@H](C(N)=O)NC(=O)[C@@H](CCCN=C(N)N)NC(=O)[C@H](Cc2ccccc2)NC(=O)[C@@H]([C@@H](C)CC)NC(=O)[C@H](CCCN=C(N)N)NC(=O)[C@@H](CC(=O)O)NC1=O
4,680 nM,CC(C)C[C@@H]1NC(=O)[C@@H](CCCN=C(N)N)NC(=O)CNC(=O)CNC(=O)[C@@H](Cc2ccccc2)NC(=O)[C@@H](C)NC(=O)[C@H](NC(=O)[C@H](CO)NC(=O)[C@@H](N)CO)CSSC[C@H](C(=O)N[C@H](Cc2ccccc2)C(=O)N[C@H](CCCN=C(N)N)C(=O)O)NC(=O)[C@@H](CC(C)C)NC(=O)[C@H](CCCN=C(N)N)NC(=O)[C@@H](CC(=O)O)NC1=O
5,6500 nM,CC[C@H](C)[C@@H]1NC(=O)[C@@H](CCCN=C(N)N)NC(=O)CNC(=O)CNC(=O)[C@@H](C2CCCCC2)NC(=O)CCSSC[C@H](C(N)=O)NC(=O)[C@@H](CCCN=C(N)N)NC(=O)[C@@H](Cc2ccccc2)NC(=O)[C@@H]([C@@H](C)CC)NC(=O)[C@H](CCCN=C(N)N)NC(=O)[C@@H](CC(=O)O)NC1=O
6,58 nM,CC[C@H](C)[C@@H]1NC(=O)[C@H]2CCCCNC(=O)C[C@@H](NC1=O)C(=O)N[C@@H](CCCN=C(N)N)C(=O)N[C@H]([C@@H](C)CC)C(=O)N[C@@H](Cc1ccccc1)C(=O)N[C@H](CCCN=C(N)N)C(=O)N[C@@H](C(N)=O)CSSC[C@@H](NC(=O)[C@H](N)CCCN=C(N)N)C(=O)N[C@H](C1CCCCC1)C(=O)NCC(=O)NCC(=O)N2
7,800 nM,CC[C@H](C)[C@@H]1NC(=O)[C@@H](CCCN=C(N)N)NC(=O)CNC(=O)CNC(=O)[C@@H](C2CCCCC2)NC(=O)[C@H](N)CSSC[C@H](C(N)=O)NC(=O)[C@@H](CCCN=C(N)N)NC(=O)[C@H](Cc2ccccc2)NC(=O)[C@@H](C)NC(=O)[C@H](CCCN=C(N)N)NC(=O)[C@@H](CC(=O)O)NC1=O
8,260 nM,CC[C@H](C)[C@@H]1NC(=O)[C@@H](CCCN=C(N)N)NC(=O)CNC(=O)CNC(=O)[C@@H](C2CCCCC2)NC(=O)[C@H](NC(=O)[C@H](N)CCCN=C(N)N)CSSC[C@H](C(N)=O)NC(=O)[C@@H](CCCN=C(N)N)NC(=O)[C@H](Cc2ccccc2)NC(=O)[C@@H]([C@@H](C)CC)NC(=O)[C@H](CCCN=C(N)N)NC(=O)CNC1=O
9,96 nM,CC[C@H](C)[C@@H]1NC(=O)[C@@H](CCCN=C(N)N)NC(=O)CNC(=O)CNC(=O)[C@@H](C2CCCCC2)NC(=O)[C@H](NC(=O)[C@H](N)CCCN=C(N)N)CSSC[C@H](C(N)=O)NC(=O)[C@@H](CCCN=C(N)N)NC(=O)[C@H]2Cc3ccccc3CN2C(=O)[C@@H]([C@@H](C)CC)NC(=O)[C@H](CCCN=C(N)N)NC(=O)[C@@H](CC(=O)O)NC1=O
10,680 nM,CC[C@H](C)[C@@H]1NC(=O)[C@@H](CCCN=C(N)N)NC(=O)CNC(=O)CNC(=O)[C@@H](Cc2ccccc2)NC(=O)[C@H](NC(=O)[C@H](N)CCCN=C(N)N)CSSC[C@H](C(=O)O)NC(=O)[C@@H](CCCN=C(N)N)NC(=O)[C@H](Cc2ccccc2)NC(=O)[C@@H]([C@@H](C)CC)NC(=O)[C@H](CCCN=C(N)N)NC(=O)[C@@H](CC(C)C)NC1=O
11,680 nM,CC[C@H](C)[C@H]1NC(=O)[C@H](CCCN=C(N)N)NC(=O)[C@@H](CC(=O)O)NC(=O)[C@H](Cc2ccccc2)NC(=O)[C@@H](CCCN=C(N)N)NC(=O)CNC(=O)CNC(=O)[C@@H](C2CCCCC2)NC(=O)[C@H](NC(=O)[C@H](N)CCCN=C(N)N)CSSC[C@H](C(N)=O)NC(=O)[C@@H](CCCN=C(N)N)NC(=O)[C@H](Cc2ccccc2)NC1=O
12,230 nM,CC[C@H](C)[C@@H]1NC(=O)[C@@H](CCCN=C(N)N)NC(=O)CNC(=O)CNC(=O)[C@@H](C2CCCCC2)NC(=O)[C@H](NC(=O)[C@H](N)CCCN=C(N)N)CSSC[C@H](C(N)=O)NC(=O)[C@@H](CCCN=C(N)N)NC(=O)[C@H](Cc2ccccc2)NC(=O)[C@@H](C)NC(=O)[C@H](CCCN=C(N)N)NC(=O)[C@@H](CC(=O)O)NC1=O

row,SMILES,KL
1,CC[C@H](C)[C@@H]1NC(=O)[C@@H](CCCN=C(N)N)NC(=O)CNC(=O)CNC(=O)[C@@H](C2CCCCC2)NC(=O)[C@H](NC(=O)[C@H](N)CCCN=C(N)N)CSSC[C@H](C(N)=O)NC(=O)[C@@H](C)NC(=O)CNC(=O)[C@@H]([C@@H](C)CC)NC(=O)[C@H](CCCN=C(N)N)NC(=O)[C@@H](CC(=O)O)NC1=O,1200 nM
